Key:
Assay in all cases: TAG hydrolase assay, Expi293 lysates expressing ATGL orthologue
Format in all cases: biochemical
rat ATGL = target: T1, rat ATGL (Rattus norvegicus, UniProt P0C548)
T1 construct: host or cells: Expi293 cells, crude lysate
Description: (§1) We previously developed Atglistatin (Ai), a selective inhibitor of mouse ATGL,[31],[32] which is ineffective against human ATGL.[17] Ai acts as a competitive inhibitor targeting the minimal active domain of ATGL ranging from aa 1–254.[33] This domain is highly conserved in different mammalian species (∼90% identity, Table 1) and comprises the patatin-like domain, eponymous for all members of the patatin-like phospholipase domain-containing (PNPLA) protein family.[34] We first investigated the species selectivity of Ai by performing TAG hydrolase assays[35] with lysates from Expi293 cells expressing ATGL orthologues of different species. The activity of ATGL is strongly stimulated by the co-activator protein comparative gene identification-58 (CGI-58, also known as α/β hydrolase domain containing 5, ABHD5)[36] and can be suppressed by the inhibitory protein G0/G1 switch 2 (G0S2).[37] We therefore determined ATGL activity in the presence and absence of mouse CGI-58, mouse G0S2, and Ai. As shown in Figure 1a–i, all ATGL orthologues were expressed, enzymatically active, stimulated by mouse CGI-58, and inactivated by mouse G0S2. Ai inhibited mouse (Figure 1a), rat (Figure 1b), goat (Figure 1c), dog (Figure 1e), and marmoset ATGL (Figure 1f), but not pig (Figure 1d), rhesus monkey (Figure 1g), or human ATGL (Figure 1h).
(§2) Experimental details, materials, and methods
(§3) Expression of recombinant ATGL constructs and preparation of cell lysates. Expi293 cells were cultivated in Expi293 Expression Medium (GIBCO, Thermo Fisher Scientific, Waltham, USA) at standard conditions (37°C, 5% CO2, 95% humidified atmosphere, 125 rpm). DNA constructs containing ATGL from different species and chimeric ATGL variants in pcDNA3.1(+)myc-His C Vector were obtained from BioCat GmbH (Heidelberg, Germany). Cells were transfected with ExpiFectamine293 Transfection Kit (GIBCO) in Opti-Mem reduced serum medium (GIBCO) according to the manufacturer’s instructions. After 48 h, cells were harvested by centrifugation and washed three times with PBS. Cells were disrupted in buffer A (0.25 M sucrose, 1 mM EDTA, 1 mM dithiothreitol, 20µg/ml leupeptin, 2 µg/ml antipain, 1 µg/ml pepstatin, pH 7.0) by sonication (Virsonic 475, Virtis, Gardiner, USA). Nuclei and debris were removed by centrifugation at 1,000 g and 4°C for 10 min. Protein concentrations were determined using Bio-Rad protein assay (Bio-Rad 785, Bio-Rad Laboratories, Munich, Germany) using BSA as standard.
(§4) Expression and purification of mouse CGI-58. CGI-58 was expressed and purified as described 1. In brief, the coding sequence of mouse Cgi-58 was cloned into pHis-Sumo and co-transformed with the plasmid pTf16 expressing the chaperone Tig into E. coli BL21(DE3). Cells were cultured overnight at 37°C and 180 rpm in the presence of 40 µg/ml kanamycin and 34 µg/ml chloramphenicol. Thereafter, cells were transferred into fresh LB medium, grown until OD600 of 0.6, and expression was induced by the addition of 0.5 mM IPTG. After overnight incubation at 30°C, cells were harvested at 4,500 x g and 4°C for 20 min, washed in 1x PBS, and resuspended in lysis buffer (20 mM Tris/HCl pH 7.8, 300 mM NaCl, 30 mM imidazole, 0.1% IGEPAL CA-630, 3.5 mM β-mercaptoethanol, 20 µg/ml leupeptin, 2 µg/ml antipain and 1 µg/ml pepstatin). Cells were incubated with 1 mg/ml lysozyme at 4°C for 20 min, disrupted by sonication, and lysates were centrifuged at 30,000 x g and 4°C for 40 min. His-CGI-58 was purified from the supernatant using an ÄKTA pure system (Cytiva, Uppsala, Sweden) equipped with a 5 ml HisTrap […]
(§5) Expression and purification of mouse G0S2. Chemically competent E. coli ArcticExpress (DE3) cells were transformed with the pST50-SMT3-TEV-mG0S2-His expression plasmid, plated on LB agar plates containing 100 ampicillin, and incubated […] overnight at 37°C. The next day, 10 ml LB medium supplemented with 100 μg/ml ampicillin, 20 μg/ml gentamycin and 2% glucose were inoculated with a single colony and incubated overnight at 37°C. […]

marmoset ATGL = tested on: marmoset ATGL
Description: as §1, §2, §3, §4, §5

goat ATGL = tested on: goat ATGL
Description: as §1, §2, §3, §4, §5

dog ATGL = tested on: dog ATGL
Description: as §1, §2, §3, §4, §5

mouse ATGL = target: T2, mouse ATGL (Mus musculus, UniProt Q8BJ56)
T2 construct: host or cells: Expi293 cells, crude lysate
T2 sequence (Q8BJ56 whole entry): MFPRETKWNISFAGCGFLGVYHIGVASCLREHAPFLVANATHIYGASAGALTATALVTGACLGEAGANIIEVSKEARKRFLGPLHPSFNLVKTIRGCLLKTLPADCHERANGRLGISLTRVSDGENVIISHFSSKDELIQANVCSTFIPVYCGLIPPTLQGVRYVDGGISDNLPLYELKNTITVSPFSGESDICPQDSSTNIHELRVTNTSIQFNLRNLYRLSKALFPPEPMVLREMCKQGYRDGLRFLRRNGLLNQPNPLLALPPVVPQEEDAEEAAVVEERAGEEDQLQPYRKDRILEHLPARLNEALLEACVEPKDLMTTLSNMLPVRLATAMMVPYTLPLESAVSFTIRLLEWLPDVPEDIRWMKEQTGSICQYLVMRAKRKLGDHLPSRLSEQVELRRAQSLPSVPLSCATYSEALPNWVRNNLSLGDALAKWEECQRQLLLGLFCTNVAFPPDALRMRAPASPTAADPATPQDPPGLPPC
Description: as §1, §2, §3, §4, §5

T1 sequence (P0C548 whole entry): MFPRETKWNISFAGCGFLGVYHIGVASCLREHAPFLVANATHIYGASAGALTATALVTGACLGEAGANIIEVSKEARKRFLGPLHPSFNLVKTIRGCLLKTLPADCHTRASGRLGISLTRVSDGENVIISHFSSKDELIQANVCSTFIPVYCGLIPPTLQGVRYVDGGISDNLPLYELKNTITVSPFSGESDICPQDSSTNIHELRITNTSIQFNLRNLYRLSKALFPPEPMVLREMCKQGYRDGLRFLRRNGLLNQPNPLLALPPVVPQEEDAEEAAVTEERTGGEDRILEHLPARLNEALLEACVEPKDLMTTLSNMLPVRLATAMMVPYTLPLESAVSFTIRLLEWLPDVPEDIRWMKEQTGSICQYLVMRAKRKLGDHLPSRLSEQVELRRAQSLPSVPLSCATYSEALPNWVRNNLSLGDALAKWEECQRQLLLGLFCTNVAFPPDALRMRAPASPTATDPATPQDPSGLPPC

SMILES	inhibition of TAG hydrolase activity (rat ATGL; Atglistatin (Ai) 40 μM)	inhibition of TAG hydrolase activity (marmoset ATGL; Atglistatin (Ai) 40 μM)	inhibition of TAG hydrolase activity (goat ATGL; Atglistatin (Ai) 40 μM)	inhibition of TAG hydrolase activity (dog ATGL; Atglistatin (Ai) 40 μM)	inhibition of TAG hydrolase activity (mouse ATGL; Atglistatin (Ai) 40 μM)	reduction in TAG hydrolase activity (rat ATGL; NG-497 50 μM)	reduction in TAG hydrolase activity (marmoset ATGL; NG-497 50 μM)	reduction in TAG hydrolase activity (goat ATGL; NG-497 50 μM)	reduction in TAG hydrolase activity (dog ATGL; NG-497 50 μM)	reduction in TAG hydrolase activity (mouse ATGL; NG-497 50 μM)
CN(C)C(=O)Nc1cccc(-c2ccc(N(C)C)cc2)c1 [Atglistatin, reference compound]	inhibited	inhibited	inhibited	inhibited	inhibited	–	–	–	–	–
CCOc1ccc(-c2cc(OC)cc(C(=O)OC(C)C)n2)cc1 [NG-497]	–	–	–	–	–	less than 20%	less than 20%	less than 20%	less than 20%	less than 20%

Reference: paper PMC9011347, “Small-Molecule Inhibitors Targeting Lipolysis in Human Adipocytes” (Journal of the American Chemical Society, 2022)
